Experimental data published in paper PMC5377379, “Early neurotrophic pharmacotherapy rescues developmental delay and Alzheimer’s-like memory deficits in the Ts65Dn mouse model of Down syndrome” (Scientific Reports, 2017).
Where a SMILES comes first, the peptide text is derived from it. The star is where a group is joined. X1 = NC(=O)C12CC3CC(CC(N*)(C3)C1)C2

B1: full-length human recombinant CNTF protein: full-length human recombinant ciliary neurotrophic factor protein given in clinical trials (protein, UniProt P26441 1-200, looked up)
chain: MAFTEHSPLTPHRRDLCSRSIWLARKIRSDLTALTESYVKHQGLNKNINLDSADGMPVASTDQWSELTEAERLQENLQAYRTFHVLLARLLEDQQVHFTPTEGDFHQAIHTLLLQVAAFAYQIEELMILLEYKIPRNEADGMPINVGDGGLFEKKLWGLKVLQELSQWTVRSIHDLRFISSHQTGIPARGSHYIANNKKM
modifications: full-length

Experiments:
[1] = system: Ts65Dn mice; experiment: General examination and monthly body weight, adult mice and mothers; type: in vivo
Source text: We treated 2–3-month-old pregnant Ts65Dn (Dn) and wild-type (WT) mothers from day 8 (E8) of pregnancy till the weaning of the pups on PND21 with compound P021 (P) in the feed, or as control with vehicle (V) feed (Fig. 1). The offsprings also had access to the P021 or vehicle diet as per mother’s group till PND21. The offsprings from Ts65Dn mothers were genotyped to identify Ts65Dn and WT pups. There were 6 study groups as follows: WT offsprings of WT mothers on vehicle diet (WT-V-WT), WT offsprings of WT mothers on P021 diet (WT-P-WT), WT offsprings of Ts65Dn mothers on vehicle diet (Dn-V-WT), WT offsprings of Ts65Dn mothers on P021 diet (Dn-P-WT), Ts65Dn offsprings of Ts65Dn mothers on vehicle diet (Dn-V-Dn), and Ts65Dn offsprings of Ts65Dn mothers on P021 diet (Dn-P-Dn). In the first phase of the study (Fig. 1b), the newborn pups were evaluated for neurobehavioral development starting on PND1 and carried out until PND21 (or until the appearance of developmental milestone/reflex). After completion of behavioral testing, the 3-week-old mice were sacrificed and brain tissue was collected. The neurobehavioral development component of the study was performed on WT-V-WT (n = 11), WT-P-WT (n = 10), Dn-V-WT (n = 10), Dn-P-WT (n = 9), Dn-V-Dn (n = 11), and Dn-P-Dn (n = 12) mice. In the second phase of the study (Fig. 1c), after prenatal to early postnatal treatment, the offsprings were allowed to grow till 5 months of age, and then general behavioral evaluation and cognitive testing were performed. After weaning, the offsprings received regular mouse chow. After completion of behavioral testing, ~7-month-old animals were sacrificed and brain tissue was collected for biochemical analyses. This longitudinal component of the study was carried out on WT-V-WT (n = 10), WT-P-WT (n = 12), Dn-V-WT (n = 12), Dn-P-WT (n = 11), Dn-V-Dn (n = 13), and Dn-P-Dn (n = 12) mice.
For both the neurobehavioral development in mouse pups and the longitudinal adult mice studies, the physical state and condition of the animals (both mothers and offsprings) were carefully examined throughout the respective study duration. Body weight of mouse pups was recorded daily from PND1 to PND21. Body weight of adult mice was evaluated monthly. Adult mice were not subjected to any behavioral testing till they were ~5 months of age.

[2] = cited from earlier work
Source text: The compound P021 exerts a neurogenic and neurotrophic effect by inhibiting leukemia inhibitory factor (LIF) signaling pathway and enhancing brain derived neurotrophic factor (BDNF) expression by increasing its transcription.

[3] = done at EVER NeuroPharma GmbH, cited from earlier work
Method: (§1) The studies regarding the plasma stability and stability in gastric and intestinal juices of P021 were done at EVER NeuroPharma GmbH, Unterach, Austria[67]. Briefly, the compound P021 was found stable both in artificial gastric juice (>90%) and in artificial intestinal juice (>95%) as analyzed up to 30 min and 2 hours, respectively.

[4] = system: STAT3 phosphorylation at Tyr705; experiment: Western blot of pSTAT3 (Tyr705) in hippocampus of 3-week-old offspring (placental/lactational and BBB delivery); type: in vivo, WT and Ts65Dn mice; conditions: inferred from reduced hippocampal pSTAT3 in 3-week-old offspring; 200 nmoles/g diet to dams E8-PND21
Method: as §1, with “respectively. […] It is also worth mentioning that young mice may have consumed some P021 diet directly as young mice start consuming solid food by ~PND16.” for “respectively.”
After completion of behavioral testing, the 3-week-old mice from the neurobehavioral development study and the ~7-month-old mice from the longitudinal study were anesthetized with an overdose of sodium pentobarbital (125 mg/kg) and were transcardially perfused with 0.1 M phosphate buffered saline (PBS). The mouse brains were extracted immediately after perfusion. The left hemisphere of the brain was dissected into hippocampus, cerebral cortex, cerebellum, and brain stem, immediately frozen on dry ice, and then stored at −80 °C till further processing for biochemical analysis.
The hippocampus from left cerebral hemisphere stored at −80 °C from each mouse was homogenized in a Teflon-glass homogenizer to obtain 10% (w/v) homogenate. […] The blots were developed and quantified as described before. For quantification of different protein levels, each immunoreactive band was normalized to its corresponding GAPDH band.

[5] = adult C57Bl/6 mice, commercial service APREDICA; cited from earlier work
[6] = system: 3xTg-AD mice; conditions: concluded from hippocampal pSTAT3 decrease after oral P021 in diet; cited from earlier work
[7] = administration in clinical trials, humans; cited from earlier work
Source text: Overall, we observed a significant group effect in body weight [Fig. 7a; 2-way ANOVA, F(5,410) = 14.28, p < 0.0001] and its change with age [F(4,410) = 100.25, p < 0.0001], however, group × age interaction was not significant [F(20,410) = 0.10, p = 1.0]. Bonferroni’s p ...

Molecule	general behavioral profile of the adult mice ([1]; adult offspring treated E8-PND21)	body weight, adult Ts65Dn mice ([1]; monthly evaluation, Dn-V-Dn vs. Dn-P-Dn, p > 0.05, treated E8-PND21)	body weight, adult WT mice ([1]; monthly evaluation, WT-V-WT vs. WT-P-WT and Dn-V-WT vs. Dn-P-WT, p > 0.05)	general physical condition of treated mothers ([1]; pregnant mothers on P021 diet, evaluated up to 2-3 months after weaning the pups)	water solubility [2]	stable in artificial gastric juice ([3]; analyzed up to 30 min) [%]	stable in artificial intestinal juice ([3]; analyzed up to 2 hours) [%]	placental/lactational delivery to offspring brain [4]	BBB permeability [5]	oral bioavailability [6]	adverse effects in clinical trials [7]
CC(=O)N[C@@H](CC(=O)O)C(=O)NCC(=O)NCC(=O)N[C@@H](CC(C)C)C(=O)NC12CC3CC(C1)CC(C(N)=O)(C3)C2 [Peptide P021] (Ac-DGGL-X1)	did not affect the general behavioral profile	did not induce any significant changes in body weight	did not produce any alterations in body weight	did not show any treatment-induced alteration in their general physical condition	water-soluble	> 90	> 95	delivered across placental barrier during pregnancy and via breast milk during lactation	BBB-permeable	orally bioavailable	
B1											anorexia, skeletal muscle loss, hyperalgesia, severe cramps, and muscle pain
